Results from paper PMC3692405, “Disease-associated mutations in CNGB3 promote cytotoxicity in photoreceptor-derived cells” (Molecular Vision, 2013).
Read-outs that look alike come from different tables or passages of the source.

Target: T1, WT human CNGA3 plus WT CNGB3 heteromeric channels (Homo sapiens, UniProt Q16281+Q9NQW8)
T1 construct: expressed in transfected cells; host or cells: Xenopus laevis oocytes injected with cRNA transcribed from pGEMHE constructs
T1 sequence (Q16281 1-694): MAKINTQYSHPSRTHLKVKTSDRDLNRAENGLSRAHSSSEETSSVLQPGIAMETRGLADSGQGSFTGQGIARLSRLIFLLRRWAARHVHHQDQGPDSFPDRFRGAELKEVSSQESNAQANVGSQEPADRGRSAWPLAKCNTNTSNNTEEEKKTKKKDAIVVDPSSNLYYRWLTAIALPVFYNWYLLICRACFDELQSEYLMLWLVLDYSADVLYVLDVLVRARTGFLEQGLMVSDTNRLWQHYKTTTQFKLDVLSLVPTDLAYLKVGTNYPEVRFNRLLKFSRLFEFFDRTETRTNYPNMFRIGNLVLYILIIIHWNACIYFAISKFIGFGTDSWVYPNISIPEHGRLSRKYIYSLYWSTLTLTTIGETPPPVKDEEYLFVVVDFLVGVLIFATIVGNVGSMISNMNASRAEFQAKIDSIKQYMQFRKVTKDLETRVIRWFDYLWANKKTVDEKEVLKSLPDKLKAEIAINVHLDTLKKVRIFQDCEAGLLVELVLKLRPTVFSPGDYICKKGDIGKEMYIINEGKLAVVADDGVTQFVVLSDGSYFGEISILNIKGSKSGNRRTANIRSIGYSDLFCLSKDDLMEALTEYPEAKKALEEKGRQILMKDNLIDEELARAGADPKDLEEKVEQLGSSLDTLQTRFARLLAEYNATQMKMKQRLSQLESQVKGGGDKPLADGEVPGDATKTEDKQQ
T1 sequence (Q9NQW8 1-809): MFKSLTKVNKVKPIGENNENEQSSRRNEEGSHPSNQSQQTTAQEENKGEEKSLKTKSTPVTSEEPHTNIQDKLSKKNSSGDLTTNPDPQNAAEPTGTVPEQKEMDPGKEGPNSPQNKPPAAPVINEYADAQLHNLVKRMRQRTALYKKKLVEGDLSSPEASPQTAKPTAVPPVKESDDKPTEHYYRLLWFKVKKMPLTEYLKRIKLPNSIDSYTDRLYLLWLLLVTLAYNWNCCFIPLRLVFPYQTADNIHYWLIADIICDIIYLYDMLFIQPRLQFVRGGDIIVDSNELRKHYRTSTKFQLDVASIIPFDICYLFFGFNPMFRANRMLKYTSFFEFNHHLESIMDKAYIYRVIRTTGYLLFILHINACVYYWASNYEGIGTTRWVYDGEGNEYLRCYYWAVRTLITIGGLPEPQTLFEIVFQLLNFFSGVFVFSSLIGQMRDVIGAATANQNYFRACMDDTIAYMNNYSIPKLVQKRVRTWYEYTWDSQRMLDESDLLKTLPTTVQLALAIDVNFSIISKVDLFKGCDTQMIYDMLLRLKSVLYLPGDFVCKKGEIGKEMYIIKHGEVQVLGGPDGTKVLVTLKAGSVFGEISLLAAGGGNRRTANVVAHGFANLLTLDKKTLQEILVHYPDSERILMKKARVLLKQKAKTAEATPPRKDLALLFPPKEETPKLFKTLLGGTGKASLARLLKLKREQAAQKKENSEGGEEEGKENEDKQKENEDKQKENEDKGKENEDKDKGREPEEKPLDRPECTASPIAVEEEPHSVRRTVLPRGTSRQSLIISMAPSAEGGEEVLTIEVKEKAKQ
Experiment: Inside-out patch-clamp recording of channels expressed in Xenopus oocytes (WT heteromeric)
Assay type: biochemical
Protocol: For heterologous expression in Xenopus laevis oocytes, identical amounts of cDNA were linearized using SphI or NheI, and capped cRNA was transcribed in vitro using the T-7 RNA polymerase mMESSAGE mMACHINE® kit (Ambion, Austin, TX). cRNA concentrations and relative amounts were determined by denaturing gel electrophoresis and KODAK 1D image analysis software (Rochester, NY), as well as by spectrophotometry. […] Oocytes were incubated in ND96 (96 mM NaCl, 2 mM KCl, 1.8 mM CaCl2, 1 mM MgCl2, and 5 mM HEPES, pH 7.6, supplemented with 10 μg/ml gentamycin).
Two to seven days after microinjection of cRNA, patch-clamp experiments were performed using the inside-out configuration with an Axopatch 200B amplifier (Axon Instruments, Foster City, CA). Recordings were made at 20–23 °C. Data were acquired using Pulse software (HEKA Elektronik, Lambrecht, Germany). Current traces were elicited by voltage steps from a holding potential of 0 mV to +80 mV, then to −80 mV and back to 0 mV. Initial pipette resistances were 0.4–0.8 megaohms. Intracellular and extracellular solutions contained 130 mM NaCl, 0.2 mM EDTA, and 3 mM HEPES (pH 7.2). Intracellular solutions were exchanged using an RSC-160 rapid solution changer (Molecular Kinetics, Indianapolis, IN). Currents in the absence of cyclic nucleotides were subtracted. For channel activation by CPT-cGMP or CPT-cAMP, dose–response data were fitted with the Hill equation, I/Imax=([cNMP]^h/(K1/2^h + [cNMP]^h)), where I is the current amplitude at +80 mV, Imax is the maximum current elicited by saturating concentration of ligand, [cNMP] is the ligand concentration, K1/2 is the apparent ligand affinity, and h is the Hill slope. We measured sensitivity to block by L-cis-diltiazem (RBI, Natick, MA) applied to the intracellular face of the patch in the presence of 0.1 μM CPT-cGMP. Data were fit with a modified Hill equation in the form I blocker/I=(K1/2^h/(K1/2^h + [blocker]^h)). Data were analyzed using Igor (Wavemetrics, Lake Oswego, OR), SigmaPlot, and SigmaStat (Systat Software Inc., San Jose, CA). All values are reported as the mean±standard error of the mean of n experiments unless otherwise indicated. Statistical significance was determined using a Student t test or Mann–Whitney rank sum test, and a p value of <0.05 was considered significant.

Nc1ncnc2c1nc(Sc1ccc(Cl)cc1)n2[C@@H]1O[C@@H]2COP(=O)(O)O[C@H]2[C@H]1O [CPT-cAMP, CPT-adenosine 3′,5′-cyclic monophosphate]
relative agonist efficacy Imax, CPT-cAMP/Imax, CPT-cGMP (+80 mV, CPT-cAMP 100 μM vs CPT-cGMP 4 μM, mean±SEM, n=10): 0.25±0.03 | Hill slope h, CPT-cAMP activation (Hill fit, mean±SEM, n=10): 1.7±0.1 | EC50 (Hill fit, mean±SEM, n=10, read-out: apparent affinity K1/2, CPT-cAMP (channel activation)): 28.1 ± 2.6 µM | Hill slope h, CPT-cAMP, representative dose-response (representative patch, Figure 5A): 1.4 | EC50 (representative patch, Figure 5A, read-out: K1/2,CPT-cAMP, representative dose-response): 28.3 µM

Nc1nc2c(nc(Sc3ccc(Cl)cc3)n2[C@@H]2O[C@@H]3COP(=O)(O)O[C@H]3[C@H]2O)c(=O)[nH]1 [CPT-cGMP, 8-(4-chlorophenylthio) guanosine 3′,5′-cyclic monophosphate]
Hill slope h, CPT-cGMP activation (+80 mV, Hill fit, mean±SEM, n=13): 1.5±0.05 | EC50 (+80 mV, Hill fit, mean±SEM, n=13, read-out: apparent CPT-cGMP affinity K1/2, CPT-cGMP (channel activation)): 0.254 ± 0.0181 µM | maximum patch current density (Imax/area) (+80 mV, saturating CPT-cGMP (4 μM), mean±SEM, n=13): 55.1±10.9 pA/μm^2 | Hill slope h, CPT-cGMP, representative dose-response (representative patch, Figure 1B): 1.5 | EC50 (representative patch, Figure 1B, read-out: K1/2,CPT-cGMP, representative dose-response): 0.248 µM | potency relative to unmodified cGMP for channel activation (unmodified cGMP values from refs 19, 26): 80–100 fold
